Target: T1, human NPC1L1 (Homo sapiens, UniProt Q9UHC9)
T1 sequence (Q9UHC9 22-1359): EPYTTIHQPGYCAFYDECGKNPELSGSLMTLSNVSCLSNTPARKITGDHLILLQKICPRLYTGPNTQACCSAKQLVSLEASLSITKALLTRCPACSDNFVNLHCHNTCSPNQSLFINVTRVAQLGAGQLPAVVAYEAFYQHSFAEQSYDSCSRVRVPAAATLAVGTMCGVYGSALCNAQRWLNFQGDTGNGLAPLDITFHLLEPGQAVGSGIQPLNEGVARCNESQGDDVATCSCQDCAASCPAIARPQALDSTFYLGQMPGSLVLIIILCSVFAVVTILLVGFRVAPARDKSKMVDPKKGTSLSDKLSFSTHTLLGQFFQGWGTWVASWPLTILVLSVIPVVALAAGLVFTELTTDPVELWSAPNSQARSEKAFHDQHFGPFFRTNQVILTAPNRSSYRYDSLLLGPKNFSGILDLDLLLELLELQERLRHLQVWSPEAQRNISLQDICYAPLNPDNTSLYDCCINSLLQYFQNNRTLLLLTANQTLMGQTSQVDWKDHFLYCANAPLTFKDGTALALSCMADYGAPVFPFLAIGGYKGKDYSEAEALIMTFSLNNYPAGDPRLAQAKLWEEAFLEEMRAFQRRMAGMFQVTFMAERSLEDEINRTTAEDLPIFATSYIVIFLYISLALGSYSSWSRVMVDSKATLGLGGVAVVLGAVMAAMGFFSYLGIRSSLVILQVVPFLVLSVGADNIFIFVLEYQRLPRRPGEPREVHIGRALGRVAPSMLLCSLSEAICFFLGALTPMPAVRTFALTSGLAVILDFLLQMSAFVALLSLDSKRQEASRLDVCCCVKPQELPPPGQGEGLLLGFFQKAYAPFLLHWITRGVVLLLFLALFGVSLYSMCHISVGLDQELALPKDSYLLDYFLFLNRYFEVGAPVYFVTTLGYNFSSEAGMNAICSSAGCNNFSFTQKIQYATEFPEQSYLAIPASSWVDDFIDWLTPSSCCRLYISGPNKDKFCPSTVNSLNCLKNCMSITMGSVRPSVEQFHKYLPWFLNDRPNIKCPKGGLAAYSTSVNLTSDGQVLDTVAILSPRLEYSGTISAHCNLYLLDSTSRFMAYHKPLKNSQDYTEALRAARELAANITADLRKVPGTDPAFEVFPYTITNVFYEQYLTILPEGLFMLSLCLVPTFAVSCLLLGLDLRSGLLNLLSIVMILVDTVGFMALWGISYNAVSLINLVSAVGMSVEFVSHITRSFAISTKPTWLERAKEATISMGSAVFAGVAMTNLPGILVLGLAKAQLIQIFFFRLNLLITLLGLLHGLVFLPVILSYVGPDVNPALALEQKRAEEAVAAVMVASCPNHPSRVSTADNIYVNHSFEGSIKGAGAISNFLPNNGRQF
Assay: 3H-cholesterol uptake inhibition in hNPC1L1/MDCKII cells
Format: cell-based

SMILES	IC50
O=C1[C@H](CC[C@H](O)c2ccc(F)cc2)[C@@H](c2ccc(O)cc2)N1c1ccc(F)cc1 [Eze, ezetimibe]	3.86 µM
O=C(O)[C@H]1O[C@@H](Oc2ccc([C@@H]3[C@@H](CC[C@H](O)c4ccc(F)cc4)C(=O)N3c3ccc(F)cc3)cc2)[C@H](O)[C@@H](O)[C@@H]1O [Eze-Glu, ezetimibe-glucuronide]	0.682 µM
